Laboratory results published in patent US20020065219A1, “Water soluble thiazolyl peptide derivatives” (priority 2000, published 2002).
In brackets after ≈: the same amount, converted by molar mass. Like-named read-outs stand apart in the source and are kept apart here.

Key:
Assay in all cases: MIC, broth micro dilution assay (NCCLS)
Type in all cases: cell-based
[1] = test system: Enterococcus faecalis A20688
[2] = test system: Streptococcus pneumoniae A28272
[3] = test system: Staphylococcus aureus A15090
[4] = Mueller-Hinton medium, 35° C., 18 hours
[5] = 50% Mueller-Hinton medium and 50% Todd Hewitt medium, 35° C., 18 hours

Row | SMILES | MIC (μg/mL) against Enterococcus faecalis A20688 [1, 4] [µg/mL] | MIC (μg/mL) against Streptococcus pneumoniae A28272 [2, 5] [µg/mL] | MIC (μg/mL) against Staphylococcus aureus A15090 [3, 4] [µg/mL] | MIC (μg/mL) against Enterococcus faecalis A20688 [1] [µg/mL] | MIC (μg/mL) against Streptococcus pneumoniae A28272 [2] [µg/mL] | MIC (μg/mL) against Staphylococcus aureus A15090 [3] [µg/mL]
1 | COC(C)=C1NC(=O)C(C(C)O)NC(=O)c2csc(n2)-c2cc(O)c(-c3nc(C(=O)NC(CN4CCCC4C(O)C(C)C)C(N)=O)cs3)nc2-c2csc(n2)C2COC(=O)c3c4c5c(cccc5n3O)COC(=O)C(OC3CC(C)(O)C(N(C)C)C(C)O3)C(OC4)C(NC(=O)c3csc1n3)c1nc(cs1)C(=O)N2 (stereo not drawn) [Example 81] | 0.125 (≈ 0.0791 µM) | 0.007 (≈ 0.00443 µM) | 0.125 (≈ 0.0791 µM) |  |  | 
2 | CCN(CC)CCN(CCN(CC)CC)CC(NC(=O)c1csc(-c2nc3c(cc2O)-c2nc(cs2)C(=O)NC(C(C)O)C(=O)N/C(=C(\C)OC)c2nc(cs2)C(=O)NC2c4nc(cs4)C(=O)NC(COC(=O)c4c5c6c(cccc6n4O)COC(=O)C(O[C@H]4C[C@](C)(O)[C@H](N(C)C)[C@H](C)O4)C2OC5)c2nc-3cs2)n1)C(N)=O (stereo partly drawn) [Example 24] |  |  |  | 2.0 (≈ 1.21 µM) | 0.007 (≈ 0.00423 µM) | 1.0 (≈ 0.605 µM)
3 | CO/C(C)=C1/NC(=O)C(C(C)O)NC(=O)c2csc(n2)-c2cc(O)c(-c3nc(C(=O)NC(CNCCn4cc([N+](=O)[O-])nc4C)C(N)=O)cs3)nc2-c2csc(n2)C2COC(=O)c3c4c5c(cccc5n3O)COC(=O)C(O[C@H]3C[C@](C)(O)[C@H](N(C)C)[C@H](C)O3)C(OC4)C(NC(=O)c3csc1n3)c1nc(cs1)C(=O)N2 (stereo partly drawn) [Example 68] | 8.0 (≈ 4.98 µM) | 0.5 (≈ 0.311 µM) | 2.0 (≈ 1.24 µM) |  |  | 
4 | CO/C(C)=C1/NC(=O)C(C(C)O)NC(=O)c2csc(n2)-c2cc(O)c(-c3nc(C(=O)NC(CN(C)CCN4CCCCC4)C(N)=O)cs3)nc2-c2csc(n2)C2COC(=O)c3c4c5c(cccc5n3O)COC(=O)C(O[C@H]3C[C@](C)(O)[C@H](N(C)C)[C@H](C)O3)C(OC4)C(NC(=O)c3csc1n3)c1nc(cs1)C(=O)N2 (stereo partly drawn) [Example 30] |  |  |  | 1.0 (≈ 0.633 µM) | 0.03 (≈ 0.019 µM) | 0.125 (≈ 0.0791 µM)
5 | CO/C(C)=C1/NC(=O)C(C(C)O)NC(=O)c2csc(n2)-c2cc(O)c(-c3nc(C(=O)NC(CN(C)CCCn4ccnc4)C(N)=O)cs3)nc2-c2csc(n2)C2COC(=O)c3c4c5c(cccc5n3O)COC(=O)C(O[C@H]3C[C@](C)(O)[C@H](N(C)C)[C@H](C)O3)C(OC4)C(NC(=O)c3csc1n3)c1nc(cs1)C(=O)N2 (stereo partly drawn) [Example 41] | 0.5 (≈ 0.317 µM) | 0.125 (≈ 0.0793 µM) | 0.5 (≈ 0.317 µM) |  |  | 
6 | COC(C)=C1NC(=O)C(C(C)O)NC(=O)c2csc(n2)-c2cc(O)c(-c3nc(C(=O)NC(CSCC(=O)O)C(N)=O)cs3)nc2-c2csc(n2)C2COC(=O)c3c4c5c(cccc5n3O)COC(=O)C(O)C(OC4)C(NC(=O)c3csc1n3)c1nc(cs1)C(=O)N2 (stereo not drawn) [Example 95] | 4.0 (≈ 2.94 µM) | 0.03 (≈ 0.0221 µM) | 0.5 (≈ 0.368 µM) |  |  | 
7 | CCC(O)C1CCCN1CC(NC(=O)c1csc(-c2nc3c(cc2O)-c2nc(cs2)C(=O)NC(C(C)O)C(=O)NC(=C(C)OC)c2nc(cs2)C(=O)NC2c4nc(cs4)C(=O)NC(COC(=O)c4c5c6c(cccc6n4O)COC(=O)C(OC4CC(C)(O)C(N(C)C)C(C)O4)C2OC5)c2nc-3cs2)n1)C(N)=O (stereo not drawn) [Example 87] | 0.06 (≈ 0.0383 µM) | 0.007 (≈ 0.00447 µM) | 0.015 (≈ 0.00957 µM) |  |  | 
8 | CO/C(C)=C1/NC(=O)C(C(C)O)NC(=O)c2csc(n2)-c2cc(O)c(-c3nc(C(=O)NC(CSCC(=O)OCc4ccccc4)C(N)=O)cs3)nc2-c2csc(n2)C2COC(=O)c3c4c5c(cccc5n3O)COC(=O)C(O[C@H]3C[C@](C)(O)[C@H](N(C)C)[C@H](C)O3)C(OC4)C(NC(=O)c3csc1n3)c1nc(cs1)C(=O)N2 (stereo partly drawn) [Example 34] | 1.0 (≈ 0.617 µM) | 0.001 (≈ 0.000617 µM) | 1.0 (≈ 0.617 µM) |  |  | 
